The source of these data is paper PMC3273640 (Journal of Molecular Biology, 2011).

The data set is described as follows: CD measurements of folding in water/TFE mixtures. It is filed as physicochemical. The conditions noted are these: CD in water/TFE mixtures (>= 2 M TFE), fit with Eq. S11.

On to “Ac-CGWWLALALALALALALALALALALWWA-NH2 [WALP27]”, for which the folding free energy worked out at 4.8 ± 0.2 kcal/mol.

With “Ac-CGWWLALALALALALALALALWWA-NH2 [WALP23]”, the folding free energy is 4.6 ± 0.2 kcal/mol.
